Test results from US9550785B2, “Pyrrolopyrimidines as therapeutic agents for the treatment of diseases” (GlaxoSmithKline LLC, priority 2012, dated 2017).
Structures can show the parent of a compound that is named as a salt.

Tests used:
Interferon-α = assay: Induction of Interferon-α using fresh human whole blood (WB); format: cell-based; settings: three donors, overnight incubation, cytokine released as percentage of 2 μM resiquimod control, read-out: mean pEC50 for INF-α (converted)
Procedure: (§1) Assay for the Induction of Interferon-α and TNF-α Using Fresh Human Whole Blood (WB)
(§2) Compounds were prepared at 100× required concentration in DMSO in flat-bottom microtitre plates at a volume of 1.5 μL. Columns 1-10 contained a 1 in 4 serial dilution of the test compound. Included on each plate was a serial dilution of the TLR7/8 agonist resiquimod as a standard and Column 11 contained 1.5 μl of 200 μM resiquimod (giving a 2 μM final concentration, used to define the approximate maximal response to resiquimod). Each compound was assayed in duplicate for each donor.
(§3) Blood samples from three human donors were collected into sodium heparin (10 U/ml). 150 μl of whole Blood was dispensed into Col 1 to 11 of assay plates containing 1.5 μl of test compound or standard in DMSO. Plates were placed in an incubator overnight (37° C., 95% air, 5% CO2). Following the overnight incubation, plates were removed from the incubator & mixed on an orbital shaker for approximately 1 minute. 100 μl of 0.9% saline was added to each well and the plates mixed again on an orbital shaker. Plates were then centrifuged (2500 rpm, 10 mins), after which a sample of plasma was removed using a Biomek FX and assayed for both IFN-α and TNF-α using the MSD (Mesoscale Discovery) electrochemiluminescence assay platform. The IFN-α assay was carried out similarly to that described above. The TNF-α assay was carried out as per kit instructions (Cat No K111BHB).
(§4) Cytokine released was expressed as a percentage of the 2 μM resiquimod control (column 11). This percentage was plotted against compound concentration and the pEC50 for the response determined by non-linear least squares curve fitting. For the IFN-α responses, generally a 4 parameter logistic model was selected. For the TNF-α responses where a clear maximum response was obtained (i.e. a well defined plateau in the response was observed) then a 4 parameter model was generally used. […]

TNF-α = assay: Induction of TNF-α using fresh human whole blood (WB); format: cell-based; settings: three donors, overnight incubation, cytokine released as percentage of 2 μM resiquimod control, read-out: mean pEC50 for TNF-α (converted)
Procedure: as §1, §2, §3, §4

EC50 (Interferon-α) [µM] | EC50 (TNF-α) [µM] | Compound
≤ 0.398 | ≤ 10 | CCCCc1nc(N)c2[nH]cc(CCCC3CCN(C(C)C)CC3)c2n1 [Example 2, 2-Butyl-7-(3-(1-isopropylpiperidin-4-yl)propyl)-5H-pyrrolo[3,2-d]pyrimidin-4-amine]
≤ 0.398 | ≤ 10 | CCCCc1nc(N)c2[nH]cc(CCC3CCNCC3)c2n1 [Example 3, 2-Butyl-7-(2-(piperidin-4-yl)ethyl)-5H-pyrrolo[3,2-d]pyrimidin-4-amine]
≤ 0.398 | ≤ 10 | CCCCc1nc(N)c2[nH]cc(CCCC3CCNCC3)c2n1 [Example 1, 2-Butyl-7-(3-(piperidin-4-yl)propyl)-5H-pyrrolo[3,2-d]pyrimidin-4-amine formate]
